In PMC9305971, “Development of [^18F]AmBF3 Tetrazine for Radiolabeling of Peptides: Preclinical Evaluation and PET Imaging of [^18F]AmBF3-PEG7-Tyr^3-Octreotide in an AR42J Pancreatic Carcinoma Model” (Bioconjugate Chemistry, 2022):

Assay: Dosimetry from dynamic PET, extrapolated to adult humans (OLINDA/EXM)
Assay type: in vivo, Rj:NMRI-Foxn1^nu/nu mice
Settings: extrapolated to adult human
Procedure: Dosimetry of [^18F]15 was calculated from the acquired PET/CT imaging data with Molecubes PET (β-CUBE) coupled with a CT (X-CUBE) (Ghent, Belgium). Regions of interest were drawn on source organs, namely, the heart, kidneys, liver, and lungs. Time–activity curves (TAC) were converted from mouse to human time −activity curves with the following equation [drawing 1] where morgan,h and WBh are the organ and whole-body weights for human, respectively. Mass morgan,m and WBm are the organ weight and the whole-body weight for mouse, respectively. Time–activity curves were normalized to 1 MBq injection, and the physical decay correction was removed. After this, the TAC’s were extrapolated into 3000 min, which corresponds in practice to infinity. Numbers of disintegrations in source organs are defined by integrating TAC from time 0 to 3000 min, and this value is input for OLINDA/EXM (version 2.1, Vanderbilt University, 2012) dosimetry software, where ICRP 89 reference adult male (73 kg) and ICRP 103 radiation weighting factors were used. Absorbed doses to each target organ are given in units mGy/MBq, and the effective dose is in units mSv/MBq.
Table S3. Dosimetry calculations.
Results after intravenous administration of [18F]15 from OLINDA/EXM (Version 2.1, Vanderbilt University, 2012), where ICRP 89 reference adult male (73 kg) and ICRP 103 radiation weighting factors were used. Absorbed doses to each target organ is given in units mGy/MBq and the effective dose in units mSv/MBq. The difference in radiation burden based on baseline (non-block) and blocked mice is negligible.
Target organ Baseline Avg. Baseline Std. Blocked Avg. Blocked Std. […]

## C[C@@H](O)[C@@H]1NC(=O)[C@H](CCCCN)NC(=O)[C@@H](Cc2c[nH]c3ccccc23)NC(=O)[C@H](Cc2ccc(O)cc2)NC(=O)[C@@H](NC(=O)[C@@H](Cc2ccccc2)NC(=O)CCOCCOCCOCCOCCON=Cc2ccc(C(=O)NCCOCCOCCOCCNC(=O)OC3CCCc4cnnc(-c5ccc(CC(=O)NCC[N+](C)(C)C[B-](F)(F)F)cc5)c4CC3)cc2)CSSC[C@@H](C(=O)N[C@H](CO)[C@@H](C)O)NC1=O (some centres unmarked) [[^18F]15]
baseline
  absorbed dose, adrenals: 0.0190 ± 0.0008 mGy/MBq
  absorbed dose, brain: 0.0102 mGy/MBq
  absorbed dose, esophagus: 0.0129 mGy/MBq
  absorbed dose, eyes: 0.0102 mGy/MBq
  absorbed dose, gallbladder wall: 0.0194 ± 0.0011 mGy/MBq
  absorbed dose, heart wall: 0.0148 mGy/MBq
  absorbed dose, kidneys: 0.0366 ± 0.0016 mGy/MBq
  absorbed dose, left colon: 0.0143 mGy/MBq
  absorbed dose, lungs: 0.0109 mGy/MBq
  absorbed dose, osteogenic cells: 0.0120 mGy/MBq
  absorbed dose, pancreas: 0.0156 ± 0.0002 mGy/MBq
  absorbed dose, prostate: 0.0135 mGy/MBq
  absorbed dose, rectum: 0.0136 mGy/MBq
  absorbed dose, red marrow: 0.0113 mGy/MBq
  absorbed dose, right colon: 0.0151 mGy/MBq
  absorbed dose, salivary glands: 0.0118 mGy/MBq
  absorbed dose, small intestine: 0.0144 mGy/MBq
  absorbed dose, spleen: 0.0137 mGy/MBq
  absorbed dose, stomach wall: 0.0141 mGy/MBq
  absorbed dose, testes: 0.0112 mGy/MBq
  absorbed dose, thymus: 0.0122 mGy/MBq
  absorbed dose, thyroid: 0.0118 mGy/MBq
  absorbed dose, total body: 0.0121 mGy/MBq
  absorbed dose, urinary bladder wall: 0.0134 ± 0.0003 mGy/MBq
  effective dose: 0.0112 mSv/MBq
baseline, listed as [18F]15
  absorbed dose, adrenals: 0.0190 mGy/MBq
  absorbed dose, gallbladder wall: 0.0194 mGy/MBq
  absorbed dose, kidneys: 0.0366 mGy/MBq
  absorbed dose, liver: 0.0334 mGy/MBq
  absorbed dose, pancreas: 0.0156 mGy/MBq
  absorbed dose, urinary bladder wall: 0.0134 mGy/MBq
blocked
  absorbed dose, adrenals: 0.0185 ± 0.0001 mGy/MBq
  absorbed dose, brain: 0.0103 mGy/MBq
  absorbed dose, esophagus: 0.0129 mGy/MBq
  absorbed dose, eyes: 0.0103 mGy/MBq
  absorbed dose, gallbladder wall: 0.0190 ± 0.0011 mGy/MBq
  absorbed dose, heart wall: 0.0150 mGy/MBq
  absorbed dose, kidneys: 0.0337 ± 0.0043 mGy/MBq
  absorbed dose, left colon: 0.0144 mGy/MBq
  absorbed dose, liver: 0.0313 ± 0.0040 mGy/MBq
  absorbed dose, lungs: 0.0106 mGy/MBq
  absorbed dose, osteogenic cells: 0.0121 mGy/MBq
  absorbed dose, pancreas: 0.0154 ± 0.0001 mGy/MBq
  absorbed dose, prostate: 0.0136 mGy/MBq
  absorbed dose, rectum: 0.0137 mGy/MBq
  absorbed dose, red marrow: 0.0114 mGy/MBq
  absorbed dose, right colon: 0.0150 mGy/MBq
  absorbed dose, salivary glands: 0.0119 mGy/MBq
  absorbed dose, small intestine: 0.0145 mGy/MBq
  absorbed dose, spleen: 0.0136 mGy/MBq
  absorbed dose, stomach wall: 0.0141 mGy/MBq
  absorbed dose, testes: 0.0113 mGy/MBq
  absorbed dose, thymus: 0.0122 mGy/MBq
  absorbed dose, thyroid: 0.0119 mGy/MBq
  absorbed dose, total body: 0.0121 mGy/MBq
  absorbed dose, urinary bladder wall: 0.0135 ± 0.0000 mGy/MBq
  effective dose: 0.011 mSv/MBq
blocked, listed as [18F]15
  absorbed dose, adrenals: 0.0185 mGy/MBq
  absorbed dose, gallbladder wall: 0.0190 mGy/MBq
  absorbed dose, kidneys: 0.0337 mGy/MBq
  absorbed dose, liver: 0.0313 mGy/MBq
  absorbed dose, pancreas: 0.0154 mGy/MBq
  absorbed dose, urinary bladder wall: 0.0135 mGy/MBq
  absorbed dose, all organs: below 0.04 mGy/MBq
  absorbed dose, all other organs apart from the kidneys and liver: ≤ 0.02 mGy/MBq
